According to PubChem BioAssay AID1259407 (Chemical Carcinogenesis Research Information System (CCRIS), 2018):
Active and inactive are the calls of the source. No rule for the calls is given here.

Test system: CCRIS mutagenicity, Ames/micronucleus/aberration tests
Assay: CCRIS mutagenicity studies
[1] = Test System: AMES SALMONELLA TYPHIMURIUM, Strain/Indicator: TA98, Metabolic Activation: HAMSTER, LIVER, S-9, AROCLOR 1254 (10%), Method: PREINCUBATION
[2] = Test System: AMES SALMONELLA TYPHIMURIUM, Strain/Indicator: TA98, Metabolic Activation: NONE, Method: PREINCUBATION
[3] = Test System: AMES SALMONELLA TYPHIMURIUM, Strain/Indicator: TA98, Metabolic Activation: RAT, LIVER, S-9, AROCLOR 1254 (10%), Method: PREINCUBATION
[4] = Test System: AMES SALMONELLA TYPHIMURIUM, Strain/Indicator: TA100, Metabolic Activation: HAMSTER, LIVER, S-9, AROCLOR 1254 (10%), Method: PREINCUBATION
[5] = Test System: AMES SALMONELLA TYPHIMURIUM, Strain/Indicator: TA100, Metabolic Activation: NONE, Method: PREINCUBATION
[6] = Test System: AMES SALMONELLA TYPHIMURIUM, Strain/Indicator: TA100, Metabolic Activation: RAT, LIVER, S-9, AROCLOR 1254 (10%), Method: PREINCUBATION
[7] = Test System: AMES SALMONELLA TYPHIMURIUM, Strain/Indicator: TA1535, Metabolic Activation: HAMSTER, LIVER, S-9, AROCLOR 1254 (10%), Method: PREINCUBATION
[8] = Test System: AMES SALMONELLA TYPHIMURIUM, Strain/Indicator: TA1535, Metabolic Activation: NONE, Method: PREINCUBATION
[9] = Test System: AMES SALMONELLA TYPHIMURIUM, Strain/Indicator: TA1535, Metabolic Activation: RAT, LIVER, S-9, AROCLOR 1254 (10%), Method: PREINCUBATION
[10] = Test System: AMES SALMONELLA TYPHIMURIUM, Strain/Indicator: TA1537, Metabolic Activation: HAMSTER, LIVER, S-9, AROCLOR 1254 (10%), Method: PREINCUBATION
[11] = Test System: AMES SALMONELLA TYPHIMURIUM, Strain/Indicator: TA1537, Metabolic Activation: RAT, LIVER, S-9, AROCLOR 1254 (10%), Method: PREINCUBATION

Cc1ccc(N)c(C)c1 was tested, and the mutagenic call (End Point: IN VITRO CHROMOSOMAL ABERRATIONS, Test System: CHL CELLS, Metabolic Activation: RAT, LIVER, S-9, SODIUM PHENOBARBITAL AND 5,6-BENZOFLAVONE) was “active; positive (structural and ploidy changes)”, the mutagenic call (Test System: AMES SALMONELLA TYPHIMURIUM, Strain/Indicator: TA97, Metabolic Activation: HAMSTER, LIVER, S-9, AROCLOR 1254 (10%), Method: PREINCUBATION) was “active; positive” and the mutagenic call (Test System: AMES SALMONELLA TYPHIMURIUM, Strain/Indicator: TA97, Metabolic Activation: NONE, Method: PREINCUBATION) was “inactive; negative”. For the same compound, the mutagenic call (Test System: AMES SALMONELLA TYPHIMURIUM, Strain/Indicator: TA97, Metabolic Activation: RAT, LIVER, S-9, AROCLOR 1254 (10%), Method: PREINCUBATION) was “inactive; negative”, the mutagenic call [1] was “active; positive” and the mutagenic call [2] was “inactive; negative”. The mutagenic call [3] was “active; positive”, the mutagenic call (Test System: AMES SALMONELLA TYPHIMURIUM, Strain/Indicator: TA98, Metabolic Activation: S-9, Method: PREINCUBATION) was “inactive; negative” and the mutagenic call [4] was “active; positive”. The mutagenic call (Test System: AMES SALMONELLA TYPHIMURIUM, Strain/Indicator: TA100, Metabolic Activation: MOUSE, LIVER, S-9, AROCLOR 1254, Method: STANDARD PLATE) was “active; positive”, the mutagenic call [5] was “inactive; negative” and the mutagenic call [6] was “active; positive”. For the same compound, the mutagenic call (Test System: AMES SALMONELLA TYPHIMURIUM, Strain/Indicator: TA100, Metabolic Activation: RAT, LIVER, S-9, AROCLOR 1254, Method: STANDARD PLATE) was “active; positive”, the mutagenic call (Test System: AMES SALMONELLA TYPHIMURIUM, Strain/Indicator: TA100, Metabolic Activation: S-9, Method: PREINCUBATION) was “active; positive” and the mutagenic call [7] was “inactive; negative”. The mutagenic call [8] was “inactive; negative”, the mutagenic call [9] was “inactive; negative” and the mutagenic call [10] was “inactive; negative”. For the same compound, the mutagenic call [11] was “inactive; negative” and the mutagenic call (Test System: UDS RODENT HEPATOCYTES, Strain/Indicator: THY INCORP (NON-S-PHASE), Metabolic Activation: NONE, Method: AUTORADIOGRAPHY) was “active; positive”.

For CN(C)Cc1ccccc1, the mutagenic call [2] was “inactive; negative”, the mutagenic call (Test System: AMES SALMONELLA TYPHIMURIUM, Strain/Indicator: TA98, Metabolic Activation: RAT, LIVER, S-9, PCB, Method: PREINCUBATION) was “inactive; negative” and the mutagenic call [5] was “inactive; negative”. For the same compound, the mutagenic call (Test System: AMES SALMONELLA TYPHIMURIUM, Strain/Indicator: TA100, Metabolic Activation: RAT, LIVER, S-9, PCB, Method: PREINCUBATION) was “inactive; negative”.

In the case of [O][Cl+][O-], the mutagenic call (End Point: IN VIVO MICRONUCLEUS, Test System: BONE MARROW POLYCHROMATIC ERYTHROCYTES, Species: MOUSE, Strain/Sex: DDY/MALE, Route: IP) is reported as “active; positive”.

c1ccc2c(c1)-c1c(ccc3ccccc13)C1OC21 (configuration not stated) was tested, and the mutagenic call (Test System: AMES SALMONELLA TYPHIMURIUM, Strain/Indicator: TA98, Metabolic Activation: NONE, Method: PREINCUBATION (KCL-CONTAINING MEDIUM)) was “active; positive”, the mutagenic call (Test System: AMES SALMONELLA TYPHIMURIUM, Strain/Indicator: TA98, Metabolic Activation: NONE, Method: PREINCUBATION (KCL-FREE MEDIUM)) was “active; positive” and the mutagenic call (Test System: AMES SALMONELLA TYPHIMURIUM, Strain/Indicator: TA100, Metabolic Activation: NONE, Method: PREINCUBATION (KCL-CONTAINING MEDIUM)) was “active; positive”. The mutagenic call (Test System: AMES SALMONELLA TYPHIMURIUM, Strain/Indicator: TA100, Metabolic Activation: NONE, Method: PREINCUBATION (KCL-FREE MEDIUM)) was “active; positive”.

For CC(F)F, the mutagenic call (Test System: AMES SALMONELLA TYPHIMURIUM, Strain/Indicator: TA98, Metabolic Activation: NONE, Method: GAS EXPOSURE) was “inactive; negative”, the mutagenic call (Test System: AMES SALMONELLA TYPHIMURIUM, Strain/Indicator: TA98, Metabolic Activation: RAT LIVER S-9, PHENOBARBITAL AND BETA-NAPHTHOFLAVONE, Method: GAS EXPOSURE) was “inactive; negative” and the mutagenic call (Test System: AMES SALMONELLA TYPHIMURIUM, Strain/Indicator: TA100, Metabolic Activation: NONE, Method: GAS EXPOSURE) was “inactive; negative”. For the same compound, the mutagenic call (Test System: AMES SALMONELLA TYPHIMURIUM, Strain/Indicator: TA100, Metabolic Activation: RAT LIVER S-9, PHENOBARBITAL AND BETA-NAPHTHOFLAVONE, Method: GAS EXPOSURE) was “inactive; negative”, the mutagenic call (Test System: AMES SALMONELLA TYPHIMURIUM, Strain/Indicator: TA1535, Metabolic Activation: NONE, Method: GAS EXPOSURE) was “inactive; negative” and the mutagenic call (Test System: AMES SALMONELLA TYPHIMURIUM, Strain/Indicator: TA1535, Metabolic Activation: RAT LIVER S-9, PHENOBARBITAL AND BETA-NAPHTHOFLAVONE, Method: GAS EXPOSURE) was “inactive; negative”. For the same compound, the mutagenic call (Test System: AMES SALMONELLA TYPHIMURIUM, Strain/Indicator: TA1537, Metabolic Activation: NONE, Method: GAS EXPOSURE) was “inactive; negative”, the mutagenic call (Test System: AMES SALMONELLA TYPHIMURIUM, Strain/Indicator: TA1537, Metabolic Activation: RAT LIVER S-9, PHENOBARBITAL AND BETA-NAPHTHOFLAVONE, Method: GAS EXPOSURE) was “inactive; negative” and the mutagenic call (Test System: E.COLI, Strain/Indicator: WP2UVRA, Metabolic Activation: NONE, Method: GAS EXPOSURE) was “inactive; negative”. For the same compound, the mutagenic call (Test System: E.COLI, Strain/Indicator: WP2UVRA, Metabolic Activation: RAT LIVER S-9, PHENOBARBITAL AND BETA-NAPHTHOFLAVONE, Method: GAS EXPOSURE) was “inactive; negative”.

In the case of CCOC(=O)C[n+]1csc2ccccc21, the mutagenic call (Test System: AMES SALMONELLA TYPHIMURIUM, Strain/Indicator: TA98, Metabolic Activation: NONE, Method: STANDARD PLATE) is reported as “inactive; negative”, the mutagenic call (Test System: AMES SALMONELLA TYPHIMURIUM, Strain/Indicator: TA100, Metabolic Activation: NONE, Method: STANDARD PLATE) is reported as “inactive; negative” and the mutagenic call (Test System: AMES SALMONELLA TYPHIMURIUM, Strain/Indicator: TA1535, Metabolic Activation: NONE, Method: STANDARD PLATE) is reported as “inactive; negative”. The mutagenic call (Test System: E.COLI, Strain/Indicator: WP2, Metabolic Activation: NONE, Method: STANDARD PLATE) was “inactive; negative” and the mutagenic call (Test System: E.COLI, Strain/Indicator: WP2 UVRA, Metabolic Activation: NONE, Method: STANDARD PLATE) was “inactive; negative”.

In the case of OCc1c[nH]c2ccccc12, the mutagenic call (Test System: Ames Salmonella typhimurium, Strain/Indicator: TA98, Metabolic Activation: None, Method: Plate incorporation) is reported as “inactive; negative”, the mutagenic call (Test System: Ames Salmonella typhimurium, Strain/Indicator: TA98, Metabolic Activation: None, Method: Preincubation) is reported as “inactive; negative” and the mutagenic call (Test System: Ames Salmonella typhimurium, Strain/Indicator: TA98, Metabolic Activation: Rat, Liver, S-9, Aroclor 1254, Method: Plate incorporation) is reported as “inactive; negative”. For the same compound, the mutagenic call (Test System: Ames Salmonella typhimurium, Strain/Indicator: TA98, Metabolic Activation: Rat, Liver, S-9, Aroclor 1254, Method: Preincubation) was “inactive; negative”, the mutagenic call (Test System: MOUSE LYMPHOMA, Strain/Indicator: L5178Y (TK+/TK-), Metabolic Activation: NONE, Method: SUSPENSION/PLATE) was “active; positive. reevaluation of results: positive” and the mutagenic call (Test System: MOUSE LYMPHOMA, Strain/Indicator: L5178Y (TK+/TK-), Metabolic Activation: RAT, LIVER, S-9, AROCLOR 1254, Method: SUSPENSION/PLATE) was “active; positive. reevaluation of results: positive”.

For Nc1ccc2c(c1)C(=O)/C(=N/Nc1ccc(-c3ccc(N/N=C4/C(=O)c5c(N)cc(S(=O)(=O)O)cc5C=C4S(=O)(=O)O)cc3)cc1)C(S(=O)(=O)O)=C2, the mutagenic call [1] was “active; positive”, the mutagenic call [2] was “active; positive” and the mutagenic call [3] was “inactive; negative”. For the same compound, the mutagenic call [4] was “inactive; negative”, the mutagenic call [5] was “inactive; negative” and the mutagenic call [6] was “inactive; negative”. The mutagenic call [7] was “inactive; negative”, the mutagenic call [8] was “inactive; negative” and the mutagenic call [9] was “inactive; negative”. The mutagenic call [10] was “inactive; negative”, the mutagenic call (Test System: AMES SALMONELLA TYPHIMURIUM, Strain/Indicator: TA1537, Metabolic Activation: NONE, Method: PREINCUBATION) was “active; positive” and the mutagenic call [11] was “inactive; negative”.
